US11607406B2, “Therapeutical methods, formulations and nutraceutical formulations” (priority 2014, dated 2023)

How the values were obtained:
volunteer [1] = assay: Pre ejaculation time of volunteers after taking the formulation or drug orally; assay type: in vivo, human; conditions: for average pre ejaculation time: 5 minutes without the drug
volunteer [2] = assay: Side effects reported by the volunteers after taking the formulation or drug orally; assay type: in vivo, human
[3] = capsule, 60 mg only, after 3 hours, repeated experiments

CN(C)[C@@H](CCOc1cccc2ccccc12)c1ccccc1 [dapoxetine]
average pre ejaculation time (volunteer [1]; [3]): 20 min | side effects (volunteer [2]; capsule, 60 mg only): significant side effects (stomach irritation, nausea and headache)

CNCC[C@H](Oc1cccc2ccccc12)c1cccs1 [duloxetine]
increase in pre-ejaculation time (volunteer [1]; [3]): no significant increase | side effects (volunteer [2]; capsule, 60 mg only): significant side effects (stomach irritation, nausea and headache)

COc1cc2c(cc1OC)[C@@H]1Cc3ccc(OC)c(OC)c3CN1CC2 [rotundine, L-tetrahydropalmatine]
ejaculation latency (volunteer [1]; alone, taken orally 50~200 mg 1 hr before sex): increase ejaculation latency

Fc1ccc([C@@H]2CCNC[C@H]2COc2ccc3c(c2)OCO3)cc1 [paroxetine]
average pre ejaculation time (volunteer [1]; capsule, 30 mg only, after 3 hours, repeated experiments): 8 min | side effects (volunteer [2]; capsule, 30 mg only (paroxetine)): significant side effects (stomach irritation, nausea and headache)

CN[C@H]1CC[C@@H](c2ccc(Cl)c(Cl)c2)c2ccccc21 [sertraline]
average pre ejaculation time (volunteer [1]; 60 mg once daily for 10 days continuously): 10 min | increase in pre-ejaculation time (volunteer [1]; [3]): no significant increase | side effects (volunteer [2]; capsule, 60 mg only): significant side effects (stomach irritation, nausea and headache)

COc1cc(/C=C/C(=O)CC(=O)/C=C/c2ccc(O)c(OC)c2)ccc1O [curcumin, diferuloylmethane]
changes in pre ejaculation time (volunteer [1]; capsule with curcumin 500 mg, after 1 hours, 3 hours and 12 hours): no significant changes

CC(C)=CCC[C@]1(C)[C@@H](CC=C(C)C)C[C@@]2(CC=C(C)C)C(=O)[C@]1(C(=O)C(C)C)C(=O)C(CC=C(C)C)=C2O [hyperforin]
average pre ejaculation time (change) (volunteer [1]; 1 capsule, 10 mg only, after 2 hours): not changed | average pre ejaculation time (volunteer [1]; 1 capsule, 30 mg only, after 2 hours, repeated tests): around 8 minutes | side effects (volunteer [2]; 1 capsule, 30 mg only (hyperforin)): headache

COc1cccc(C2(O)CCCCC2CN(C)C)c1 (centres unmarked) [Tramadol, 2-[(dimethylamino)methyl]-1-(3-methoxyphenyl)-cyclohexanol]
average pre ejaculation time (volunteer [1]; 20 mg only): 10 min

CN(C)CCC[C@@]1(c2ccc(F)cc2)OCc2cc(C#N)ccc21 [escitalopram]
changes in pre ejaculation time (volunteer [1]; 20 mg only, once orally, after 3 hours): no significant changes | side effects (volunteer [2]; 20 mg only, once orally): significant side effects
